Measured values from patent publication US5481013A, “Carboxylic acid derivatives” (Ciba-Geigy Corporation, priority 1992, dated 1996).

Experiments:
Type in all cases: in vivo
Nephotettix cincticeps = experiment: Activity against Nephotettix cincticeps (spray on rice plants); conditions: 504 h, 400 ppm spray on rice plants, larvae in stages 2 and 3, evaluated 21 days later, read-out: percentage reduction in population (% activity)
Method: Rice plants are treated with a spray mixture prepared with an aqueous emulsion and comprising 400 ppm of the active ingredient. After the spray coating has dried on, the rice plants are populated with leaf hopper larvae in stages 2 and 3. The test is evaluated 21 days later. The percentage reduction in population (% activity) is determined by comparing the number of surviving leaf hoppers on the treated plants with those on the untreated plants.

[1] = tested on: Panonychus ulmi (OP- and carb.- resistant); experiment: Activity against Panonychus ulmi (OP- and carb.- resistant); conditions: 336 h, 400 ppm spray on apple seedlings, evaluated after 14 days, read-out: percentage reduction in population (% activity)
Method: Apple seedlings are populated with adult females of Panonychus ulmi. After seven days, the infested plants are sprayed to drip point with an aqueous emulsion comprising 400 ppm of the test compound and grown in the greenhouse. The test is evaluated after 14 days. The percentage reduction in population (% activity) is determined by comparing the number of dead spider mites on the treated plants with those on the untreated plants. […] An activity of over 80% is shown, in particular, by compound Nos. 1.01, 2.01, 2.07, 2.08, 2.10, 2.12 to 2.16, 2.22, 2.23, 2.26, 3.01, 4.01, 4.02, 4.06, 5.01 to 5.03, 5.05, 5.06, 5.08, 5.10, 5.11, 5.15, 5.16 and 5.20 to 5.25.

Dermanyssus gallinae = experiment: Activity against Dermanyssus gallinae; conditions: 72 h, 10 ppm solution, mites in different development stages, after 3 days
Method: 2 to 3 ml of a solution comprising 10 ppm of active ingredient and approximately 200 mites in different development stages are placed into a glass container which is open at the top. The container is then sealed with a cottonwool ball, shaken for 10 minutes until the mites are wetted completely, and then briefly turned over so that the remaining test solution can be absorbed by the cottonwool. After 3 days, the mortality of the mites is determined by counting the dead individuals; it is given as a percentage.

Nilaparvata lugens [2] = experiment: Activity against Nilaparvata lugens (spray on rice plants); conditions: 504 h, 400 ppm spray on rice plants, larvae in stages 2 and 3, evaluated after 21 days, read-out: percentage reduction in population (% activity)
Method: Rice plants are treated with a spray mixture prepared with an aqueous emulsion and comprising 400 ppm of the active ingredient. After the spray coating has dried on, the rice plants are populated with plant hopper larvae in stages 2 and 3. The test is evaluated after 21 days. The percentage reduction in population (% activity) is determined by comparing the number of surviving plant hoppers on the treated plants with the number of plant hoppers on the untreated plants. […] An activity of over 80% is shown, in particular, by compound Nos. 1.01, 2.01 to 2.03, 2.07, 2.08, 2.10 to 2.16, 2.20, 2.22, 2.23, 2.26, 3.01, 4.01 to 4.06, 4.20, 5.01 to 5.06, 5.08, 5.10 to 5.12, 5.15, 5.16 and 5.20 to 5.25.

adult Anthonomus grandis = experiment: Activity against adult Anthonomus grandis; conditions: 72 h, 400 ppm spray on young cotton plants, adults, evaluated after 3 days, read-out: percentage reduction in population or in feeding damage (% activity)
Method: (§1) Young cotton plants are sprayed with a spray mixture prepared with an aqueous emulsion and comprising 400 ppm of the active ingredient. After the spray coating has dried on, the cotton plants are populated with 10 adult Anthonomus grandis and placed into a plastic container. The test is evaluated after 3 days. The percentage reduction in population, or the percentage reduction in feeding damage (% activity), is determined by comparing the number of dead beetles and the feeding damage on the treated plants with those on the untreated plants.

Tetranychus urticae = experiment: Activity against Tetranychus urticae; conditions: 144 h, 400 ppm spray on young bean plants, mixed population, 6 days at 25° C, read-out: percentage reduction in population (% activity)
Method: Young bean plants are populated with a mixed population of Tetranychus urticae and, after 1 day, sprayed with a spray mixture prepared with an aqueous emulsion and comprising 400 ppm of the active ingredient. The plants are subsequently incubated for 6 days at 25° C and then evaluated. The percentage reduction in population (% activity) is determined by comparing the number of dead eggs, larvae and adults on the treated plants with those on the untreated ones.

Heliothis virescens = experiment: Ovicidal/larvicidal activity on Heliothis virescens; conditions: 192 h, 400 ppm spray on eggs deposited on cotton, evaluated after 8 days, read-out: % reduction in population (hatching percentage of eggs and survival rate of caterpillars)
Method: Heliothis eggs which have been deposited on cotton are sprayed with a spray mixture prepared with an aqueous emulsion and comprising 400 ppm of the active ingredient. After 8 days, the hatching percentage of the eggs and the survival rate of the caterpillars are evaluated by comparing them with untreated control batches (% reduction in population).

Nilaparvata lugens [3] = experiment: Systemic activity against Nilaparvata lugens; conditions: 144 h, pots with rice plants in 400 ppm aqueous emulsion solution, larvae in stages 2 and 3, evaluated 6 days later, read-out: percentage reduction in population (% activity)
Method: Pots containing rice plants are placed into an aqueous emulsion solution comprising 400 ppm of the active ingredient. The rice plants are subsequently populated with larvae in stages 2 and 3. The test is evaluated 6 days later. The percentage reduction in population (% activity) is determined by comparing the numbers of plant hoppers on the treated plants with those on the untreated plants.

Ctenocephalides felis = experiment: Activity against Ctenocephalides felis; conditions: 504 h, 100 ppm in flea larvae nutrient medium, flea eggs, checked after 21 days
Method: 20 to 25 flea eggs are placed into a horizontally positioned 50 ml tissue culture flask into which 15 g of flea larvae nutrient medium comprising 100 ppm of the active ingredient to be tested have previously been introduced. The test flasks are incubated in an incubator at 26° to 27° C. and an atmospheric humidity of 60-70%. After 21 days, the flasks are checked for the presence of adult fleas, unhatched pupae and larvae.

[4] = tested on: Heliothis virescens caterpillars; experiment: Activity against Heliothis virescens caterpillars; conditions: 144 h, 400 ppm spray on young soybean plants, first larval stage, evaluated after 6 days, read-out: percentage reduction in population or in feeding damage (% activity)
Method: as §1, with “soybean” for “cotton”, “Heliothis virescens in the first larval stage” for “adult Anthonomus grandis”, “6” for “3”, “caterpillars” for “beetles”

Bemisia tabaci = experiment: Activity against Bemisia tabaci; conditions: 336 h, 400 ppm spray on dwarf bean plants with nymphs, evaluated 14 days after application, read-out: activity (hatching percentages vs untreated control)
Method: Dwarf bean plants are placed into gauze cages and populated with adult Bemisia tabaci specimens (white fly). After oviposition has taken place, all adults are removed and, 10 days later, the plants with the nymphs located thereon are treated with a spray mixture of the active ingredients to be tested (concentration 400 ppm), which has been prepared with an aqueous emulsion. The test is evaluated for hatching percentages 14 days after the active ingredient has been applied by comparison with the untreated control batches. […] An activity of over 80% is shown, in particular, by compound Nos. 1.01, 2.01 to 2.08, 2.10 to 2.16, 2.22, 2.23, 3.01, 4.01, 4.02, 4.05, 4.06, 5.02, 5.03, 5.06 to 5.08, 5.10, 5.11, 5.20, 5.21 and 6.09.

In the case of O=C(CCCC=C(F)F)OCCOc1ccc(Oc2ccccc2)cc1 [Compound 2.01], the activity at 400 ppm (Nephotettix cincticeps) is reported as > 80% and the activity at 400 ppm [1] is reported as > 80%.

For O=C(CCCC=C(F)F)OCCOc1ccc(Sc2ccccc2)cc1 [Compound 2.02], the activity at 400 ppm (Nephotettix cincticeps) was > 80%.

In the case of O=C(CCCC=C(F)F)OCCOc1ccc(Oc2ccccn2)cc1 [Compound 2.03], the activity at 400 ppm (Nephotettix cincticeps) is reported as > 80%.

In the case of CC(COC(=O)CCCC=C(F)F)Oc1ccc(Oc2ccccc2)cc1 (stereo not drawn) [Compound 2.06], the mortality at 10 ppm (Dermanyssus gallinae) is reported as > 80% and the activity at 400 ppm (Nephotettix cincticeps) is reported as > 80%.

In the case of O=C(CCCC=C(F)F)OCCOc1ccc(OCc2ccc(F)cc2)cc1 [Compound 2.07], the activity at 400 ppm (Nephotettix cincticeps) is reported as > 80%, the activity at 400 ppm (Nilaparvata lugens [2]) is reported as > 80% and the activity at 400 ppm (adult Anthonomus grandis) is reported as > 80%. For the same compound, the activity at 400 ppm [1] was > 80%.

For O=C(CCCC=C(F)F)OCCOc1ccc(OCc2ccc(Cl)cc2)cc1 [Compound 2.08], the activity at 400 ppm (Nilaparvata lugens [2]) was > 80%, the activity at 400 ppm (adult Anthonomus grandis) was > 80% and the activity at 400 ppm [1] was > 80%.

With N#Cc1ccc(COc2ccc(OCCOC(=O)CCCC=C(F)F)cc2)cc1 [Compound 2.10] the activity at 400 ppm (Tetranychus urticae) was > 80% and the activity at 400 ppm [1] was > 80%.

For CC(OC(=O)CCCC=C(F)F)C(C)Oc1ccc(Oc2ccccc2)cc1 (stereo not drawn) [Compound 2.13], the mortality at 10 ppm (Dermanyssus gallinae) was > 80%.

With O=C(CCCC=C(F)F)OCCOc1ccc(OCc2cccc([N+](=O)[O-])c2)cc1 [Compound 2.15] the pest or weed control at 400 ppm (Heliothis virescens) was > 80%.

For Cc1ccc(COc2ccc(OCCOC(=O)CCCC=C(F)F)cc2)cc1C [Compound 2.16], the pest or weed control at 400 ppm (Heliothis virescens) was > 80%.

O=C(CCCC=C(F)F)NCCOc1ccc(Oc2ccccc2)cc1 [Compound 2.20] was tested, and the activity at 400 ppm (Nilaparvata lugens [3]) was > 80% and the activity at 400 ppm (Nilaparvata lugens [2]) was > 80%.

In the case of CC(C)(C)c1ccc(COc2ccc(OCCOC(=O)CCCC=C(F)F)cc2)cc1 [Compound 2.26], the activity at 400 ppm (Nephotettix cincticeps) is reported as > 80%, the pest or weed control at 400 ppm (Heliothis virescens) is reported as > 80% and the pest or weed control at 100 ppm (Ctenocephalides felis) is reported as > 80%. The activity at 400 ppm (Nilaparvata lugens [3]) was > 80%, the activity at 400 ppm (Tetranychus urticae) was > 80% and the activity at 400 ppm (Nilaparvata lugens [2]) was > 80%. For the same compound, the activity at 400 ppm [1] was > 80% and the activity at 400 ppm [4] was > 80%.

In the case of O=C(CCCCCCCC=C(F)F)OCCOc1ccc(Oc2ccccn2)cc1 [Compound 4.03], the pest or weed control at 100 ppm (Ctenocephalides felis) is reported as > 80%.

Cc1nsc(Oc2ccc(OCCOC(=O)CCCCCCCC=C(F)F)cc2)n1 [Compound 4.04] was tested, and the mortality at 10 ppm (Dermanyssus gallinae) was > 80% and the pest or weed control at 100 ppm (Ctenocephalides felis) was > 80%.

O=C(CCCCCCCC=C(F)F)OCCOc1ccc(OCc2ccccc2)cc1 [Compound 4.05] was tested, and the mortality at 10 ppm (Dermanyssus gallinae) was > 80%, the activity at 400 ppm (Nephotettix cincticeps) was > 80% and the pest or weed control at 400 ppm (Bemisia tabaci) was > 80%. The activity at 400 ppm [4] was > 80%.

For O=C(CCCCCCCC=C(F)F)NCCOc1ccc(Oc2ccccc2)cc1 [Compound 4.20], the pest or weed control at 400 ppm (Heliothis virescens) was > 80%, the activity at 400 ppm (Nilaparvata lugens [3]) was > 80% and the activity at 400 ppm (Tetranychus urticae) was > 80%. The activity at 400 ppm (Nilaparvata lugens [2]) was > 80% and the activity at 400 ppm [4] was > 80%.

In the case of O=C(CCCCCCCCCC=C(F)F)OCCOc1ccc(Oc2ccccn2)cc1 [Compound 5.03], the pest or weed control at 400 ppm (Bemisia tabaci) is reported as > 80%.

For CC(COC(=O)CCCCCCCCCC=C(F)F)Oc1ccc(Oc2ccccc2)cc1 (stereo not drawn) [Compound 5.06], the activity at 400 ppm [1] was > 80%.

In the case of O=C(CCCCCCCCCC=C(F)F)OCCOc1ccc(OCc2ccc(Cl)cc2)cc1 [Compound 5.08], the pest or weed control at 100 ppm (Ctenocephalides felis) is reported as > 80%, the activity at 400 ppm (Tetranychus urticae) is reported as > 80% and the activity at 400 ppm (Nilaparvata lugens [2]) is reported as > 80%. For the same compound, the activity at 400 ppm [1] was > 80%.

N#Cc1ccc(COc2ccc(OCCOC(=O)CCCCCCCCCC=C(F)F)cc2)cc1 [Compound 5.10] was tested, and the activity at 400 ppm (adult Anthonomus grandis) was > 80%, the pest or weed control at 400 ppm (Bemisia tabaci) was > 80% and the activity at 400 ppm [1] was > 80%.

In the case of Cc1ccc(COc2ccc(OCCOC(=O)CCCCCCCCCC=C(F)F)cc2)cc1 [Compound 5.11], the pest or weed control at 400 ppm (Bemisia tabaci) is reported as > 80% and the activity at 400 ppm [1] is reported as > 80%.

O=C(CCCCCCCCCC=C(F)F)OCCOc1ccc(OCc2cccc([N+](=O)[O-])c2)cc1 [Compound 5.15] was tested, and the activity at 400 ppm (Nephotettix cincticeps) was > 80%, the pest or weed control at 400 ppm (Heliothis virescens) was > 80% and the activity at 400 ppm (Nilaparvata lugens [3]) was > 80%. For the same compound, the activity at 400 ppm (Tetranychus urticae) was > 80%, the activity at 400 ppm (Nilaparvata lugens [2]) was > 80% and the activity at 400 ppm [1] was > 80%. For the same compound, the activity at 400 ppm [4] was > 80%.

In the case of Cc1ccc(COc2ccc(OCCOC(=O)CCCCCCCCCC=C(F)F)cc2)cc1C [Compound 5.16], the activity at 400 ppm (Nephotettix cincticeps) is reported as > 80%, the pest or weed control at 400 ppm (Heliothis virescens) is reported as > 80% and the activity at 400 ppm (Nilaparvata lugens [3]) is reported as > 80%. The activity at 400 ppm (Tetranychus urticae) was > 80%, the activity at 400 ppm (Nilaparvata lugens [2]) was > 80% and the activity at 400 ppm (adult Anthonomus grandis) was > 80%. For the same compound, the activity at 400 ppm [1] was > 80% and the activity at 400 ppm [4] was > 80%.

For O=C(CCCCCCCCCC=C(F)F)OCCOc1ccc(OCc2cccc(Cl)c2)cc1 [Compound 5.20], the activity at 400 ppm (Nephotettix cincticeps) was > 80% and the pest or weed control at 400 ppm (Bemisia tabaci) was > 80%.

For O=C(CCCCCCCCCC=C(F)F)NCCOc1ccc(OCc2ccc(C(F)(F)F)cn2)cc1 [Compound 5.21], the mortality at 10 ppm (Dermanyssus gallinae) was > 80% and the pest or weed control at 400 ppm (Bemisia tabaci) was > 80%.

O=C(CCCCCCCCCC=C(F)F)OCCOc1ccc(OCc2ncc(C(F)(F)F)cc2Cl)cc1 [Compound 5.22] was tested, and the activity at 400 ppm (Nephotettix cincticeps) was > 80%.

For CC(COC(=O)CCCCCCCCCC=C(F)F)Oc1ccc(Sc2ccccc2)cc1 (stereo not drawn) [Compound 5.25], the activity at 400 ppm (Nephotettix cincticeps) was > 80% and the activity at 400 ppm [4] was > 80%.

For CC(CCCCCCCCCC(=O)OCCOc1ccc(Oc2ccccc2)cc1)=C(F)Cl [Compound 6.09], the pest or weed control at 400 ppm (Heliothis virescens) was > 80% and the pest or weed control at 400 ppm (Bemisia tabaci) was > 80%.
